From patent US5672715A, “Herbicidal substituted 3-aryl-pyrazoles” (Monsanto Company, priority 1995, dated 1997)

How the values were obtained:
Assay type in all cases: in vivo
Giant Foxtail [1] = test: pre-emergence herbicide test; conditions: Setaria faberi, pre-emergence, 0.25 lb/A; read-out: % plant inhibition
How it was run: (§1)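 Known amounts of active ingredient went into the cover soil over seeds sown in pans, either before or after the layer was spread. An initial 1/4 inch overhead irrigation was given in some cases; otherwise pans were subirrigated. Rating was % inhibition at ~14 days.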

Barnyardgrass [2] = test: pre-emergence herbicide test; conditions: Echinochloa crus-galli, pre-emergence, 0.25 lb/A; read-out: % plant inhibition
How it was run: as §1

Wheat [3] = test: pre-emergence herbicide test; conditions: Triticum aestivum, pre-emergence, 0.25 lb/A; read-out: % plant inhibition
How it was run: as §1

Rape [4] = test: pre-emergence herbicide test; conditions: pre-emergence, 0.25 lb/A; read-out: % plant inhibition
How it was run: as §1

Seedling Johnsongrass [5] = test: pre-emergence herbicide test; conditions: Sorghum halepense, pre-emergence, 0.25 lb/A; read-out: % plant inhibition
How it was run: as §1

Bedstraw Catchweed [6] = test: pre-emergence herbicide test; conditions: Galium aparine, pre-emergence, 0.25 lb/A; read-out: % plant inhibition
How it was run: as §1

Morning Glory [7] = test: pre-emergence herbicide test; conditions: Ipomoea, pre-emergence, 0.25 lb/A; read-out: % plant inhibition
How it was run: as §1

Corn [8] = test: pre-emergence herbicide test; conditions: Zea mays, pre-emergence, 0.25 lb/A; read-out: % plant inhibition
How it was run: as §1

Wild Oats [9] = test: pre-emergence herbicide test; conditions: Avena fatua, pre-emergence, 0.25 lb/A; read-out: % plant inhibition
How it was run: as §1

Cocklebur [10] = test: pre-emergence herbicide test; conditions: Xanthium strumarium, pre-emergence, 0.25 lb/A; read-out: % plant inhibition
How it was run: as §1

Velvetleaf [11] = test: pre-emergence herbicide test; conditions: Abutilon theophrasti, pre-emergence, 0.25 lb/A; read-out: % plant inhibition
How it was run: as §1

Birdseye Speedwell [12] = test: pre-emergence herbicide test; conditions: pre-emergence, 0.25 lb/A; read-out: % plant inhibition
How it was run: as §1

Common Chickweed [13] = test: pre-emergence herbicide test; conditions: pre-emergence, 0.25 lb/A; read-out: % plant inhibition
How it was run: as §1

Soybean [14] = test: pre-emergence herbicide test; conditions: Glycine max, pre-emergence, 0.25 lb/A; read-out: % plant inhibition
How it was run: as §1

Green Foxtail [15] = test: pre-emergence herbicide test; conditions: Setaria viridis, pre-emergence; 0.25 lb/A; read-out: % plant inhibition
How it was run: as §1

Downy Brome [16] = test: pre-emergence herbicide test; conditions: Bromus tectorum, pre-emergence, 0.25 lb/A; read-out: % plant inhibition
How it was run: as §1

Blackgrass [17] = test: pre-emergence herbicide test; conditions: Alopecurus myosuroides, pre-emergence, 0.25 lb/A; read-out: % plant inhibition
How it was run: as §1

Giant Foxtail [18] = test: post-emergence herbicide test; conditions: Setaria faberi, post-emergence, 0.25 lb/A; read-out: % plant inhibition
How it was run: (§2)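 Activity is given as percent inhibition of each species following foliar application. Pots were sprayed individually in a chamber once plants reached two to three weeks.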

Barnyardgrass [19] = test: post-emergence herbicide test; conditions: Echinochloa crus-galli, post-emergence, 0.25 lb/A; read-out: % plant inhibition
How it was run: as §2

Wheat [20] = test: post-emergence herbicide test; conditions: Triticum aestivum, post-emergence, 0.25 lb/A; read-out: % plant inhibition
How it was run: as §2

Rape [21] = test: post-emergence herbicide test; conditions: post-emergence, 0.25 lb/A; read-out: % plant inhibition
How it was run: as §2

Seedling Johnsongrass [22] = test: post-emergence herbicide test; conditions: Sorghum halepense, post-emergence, 0.25 lb/A; read-out: % plant inhibition
How it was run: as §2

Bedstraw Catchweed [23] = test: post-emergence herbicide test; conditions: Galium aparine, post-emergence, 0.25 lb/A; read-out: % plant inhibition
How it was run: as §2

Morning Glory [24] = test: post-emergence herbicide test; conditions: Ipomoea, post-emergence, 0.25 lb/A; read-out: % plant inhibition
How it was run: as §2

Corn [25] = test: post-emergence herbicide test; conditions: Zea mays, post-emergence, 0.25 lb/A; read-out: % plant inhibition
How it was run: as §2

Wild Oats [26] = test: post-emergence herbicide test; conditions: Avena fatua, post-emergence, 0.25 lb/A; read-out: % plant inhibition
How it was run: as §2

Cocklebur [27] = test: post-emergence herbicide test; conditions: Xanthium strumarium, post-emergence, 0.25 lb/A; read-out: % plant inhibition
How it was run: as §2

Velvetleaf [28] = test: post-emergence herbicide test; conditions: Abutilon theophrasti, post-emergence, 0.25 lb/A; read-out: % plant inhibition
How it was run: as §2

Birdseye Speedwell [29] = test: post-emergence herbicide test; conditions: post-emergence, 0.25 lb/A; read-out: % plant inhibition
How it was run: as §2

Common Chickweed [30] = test: post-emergence herbicide test; conditions: post-emergence, 0.25 lb/A; read-out: % plant inhibition
How it was run: as §2

Soybean [31] = test: post-emergence herbicide test; conditions: Glycine max, post-emergence, 0.25 lb/A; read-out: % plant inhibition
How it was run: as §2

Green Foxtail [32] = test: post-emergence herbicide test; conditions: Setaria viridis, post-emergence, 0.25 lb/A; read-out: % plant inhibition
How it was run: as §2

Downy Brome [33] = test: post-emergence herbicide test; conditions: Bromus tectorum, post-emergence, 0.25 lb/A; read-out: % plant inhibition
How it was run: as §2

Blackgrass [34] = test: post-emergence herbicide test; conditions: Alopecurus myosuroides, post-emergence, 0.25 lb/A; read-out: % plant inhibition
How it was run: as §2

Structure (SMILES)	inhibition at 280.212 g/ha (Giant Foxtail [1])	inhibition at 280.212 g/ha (Barnyardgrass [2])	inhibition at 280.212 g/ha (Wheat [3])	inhibition at 280.212 g/ha (Rape [4])	inhibition at 280.212 g/ha (Seedling Johnsongrass [5])	inhibition at 280.212 g/ha (Bedstraw Catchweed [6])	inhibition at 280.212 g/ha (Morning Glory [7])	inhibition at 280.212 g/ha (Corn [8])	inhibition at 280.212 g/ha (Wild Oats [9])	inhibition at 280.212 g/ha (Cocklebur [10])	inhibition at 280.212 g/ha (Velvetleaf [11])	inhibition at 280.212 g/ha (Birdseye Speedwell [12])	inhibition at 280.212 g/ha (Common Chickweed [13])	inhibition at 280.212 g/ha (Soybean [14])	inhibition at 280.212 g/ha (Green Foxtail [15])	inhibition at 280.212 g/ha (Downy Brome [16])	inhibition at 280.212 g/ha (Blackgrass [17])	inhibition at 280.212 g/ha (Giant Foxtail [18])	inhibition at 280.212 g/ha (Barnyardgrass [19])	inhibition at 280.212 g/ha (Wheat [20])	also measured
Cc1cc(-c2nn(C)c(C(F)(F)F)c2C)c(O)cc1Cl [Compound 16]	0%	0%	0%	55%	0%	45%	0%	0%	20%	0%	0%	100%	95%	0%	10%	20%	15%	0%	0%	0%	inhibition at 280.212 g/ha (Rape [21]): 0%; inhibition at 280.212 g/ha (Seedling Johnsongrass [22]): 0%; inhibition at 280.212 g/ha (Bedstraw Catchweed [23]): 25%; inhibition at 280.212 g/ha (Morning Glory [24]): 5%; inhibition at 280.212 g/ha (Corn [25]): 0%; inhibition at 280.212 g/ha (Wild Oats [26]): 0%; inhibition at 280.212 g/ha (Cocklebur [27]): 0%; inhibition at 280.212 g/ha (Velvetleaf [28]): 0%; inhibition at 280.212 g/ha (Birdseye Speedwell [29]): 30%; inhibition at 280.212 g/ha (Common Chickweed [30]): 50%; inhibition at 280.212 g/ha (Soybean [31]): 0%; inhibition at 280.212 g/ha (Green Foxtail [32]): 0%; inhibition at 280.212 g/ha (Downy Brome [33]): 0%; inhibition at 280.212 g/ha (Blackgrass [34]): 5%
CCOC(=O)COC(=O)c1cc(-c2nn(C)c(C(F)(F)F)c2C)c(F)cc1Cl [Compound 17]	40%	0%	0%	90%	5%	100%	50%	0%	15%	10%	50%	100%	100%	5%	35%	30%	20%	45%	70%	15%	inhibition at 280.212 g/ha (Rape [21]): 20%; inhibition at 280.212 g/ha (Seedling Johnsongrass [22]): 65%; inhibition at 280.212 g/ha (Bedstraw Catchweed [23]): 95%; inhibition at 280.212 g/ha (Morning Glory [24]): 90%; inhibition at 280.212 g/ha (Corn [25]): 10%; inhibition at 280.212 g/ha (Wild Oats [26]): 20%; inhibition at 280.212 g/ha (Cocklebur [27]): 95%; inhibition at 280.212 g/ha (Velvetleaf [28]): 99%; inhibition at 280.212 g/ha (Birdseye Speedwell [29]): 98%; inhibition at 280.212 g/ha (Common Chickweed [30]): 90%; inhibition at 280.212 g/ha (Soybean [31]): 30%; inhibition at 280.212 g/ha (Green Foxtail [32]): 20%; inhibition at 280.212 g/ha (Downy Brome [33]): 30%; inhibition at 280.212 g/ha (Blackgrass [34]): 15%
Cc1c(-c2cc(C(N)=O)c(Cl)cc2F)nn(C)c1C(F)(F)F [Compound 21]	45%	90%	5%	90%	85%	90%	20%	16%	60%	20%	25%	100%	98%	15%	100%	35%	95%	35%	25%	5%	inhibition at 280.212 g/ha (Rape [21]): 20%; inhibition at 280.212 g/ha (Seedling Johnsongrass [22]): 35%; inhibition at 280.212 g/ha (Bedstraw Catchweed [23]): 65%; inhibition at 280.212 g/ha (Morning Glory [24]): 90%; inhibition at 280.212 g/ha (Corn [25]): 10%; inhibition at 280.212 g/ha (Wild Oats [26]): 20%; inhibition at 280.212 g/ha (Cocklebur [27]): 65%; inhibition at 280.212 g/ha (Velvetleaf [28]): 90%; inhibition at 280.212 g/ha (Birdseye Speedwell [29]): 50%; inhibition at 280.212 g/ha (Common Chickweed [30]): 30%; inhibition at 280.212 g/ha (Soybean [31]): 35%; inhibition at 280.212 g/ha (Green Foxtail [32]): 25%; inhibition at 280.212 g/ha (Downy Brome [33]): 25%; inhibition at 280.212 g/ha (Blackgrass [34]): 10%
Cc1c(-c2cc(C(=O)NC(C)C)c(Cl)cc2F)nn(C)c1C(F)(F)F [Compound 22]	98%	95%	6%	90%	97%	100%	5%	5%	85%	25%	40%	100%	100%	25%	100%	40%	85%	75%	30%	0%	inhibition at 280.212 g/ha (Rape [21]): 10%; inhibition at 280.212 g/ha (Seedling Johnsongrass [22]): 60%; inhibition at 280.212 g/ha (Bedstraw Catchweed [23]): 45%; inhibition at 280.212 g/ha (Morning Glory [24]): 40%; inhibition at 280.212 g/ha (Corn [25]): 5%; inhibition at 280.212 g/ha (Wild Oats [26]): 10%; inhibition at 280.212 g/ha (Cocklebur [27]): 65%; inhibition at 280.212 g/ha (Velvetleaf [28]): 90%; inhibition at 280.212 g/ha (Birdseye Speedwell [29]): 40%; inhibition at 280.212 g/ha (Common Chickweed [30]): 40%; inhibition at 280.212 g/ha (Soybean [31]): 50%; inhibition at 280.212 g/ha (Green Foxtail [32]): 20%; inhibition at 280.212 g/ha (Downy Brome [33]): 15%; inhibition at 280.212 g/ha (Blackgrass [34]): 5%
Cc1c(-c2cc(C(=O)OCC(=O)OC(C)C)c(Cl)cc2F)nn(C)c1C(F)(F)F [Compound 23]	65%	40%	0%	75%	30%	45%	25%	0%	10%	10%	65%	100%	100%	5%	85%	15%	15%	20%	60%	11%	inhibition at 280.212 g/ha (Rape [21]): 10%; inhibition at 280.212 g/ha (Seedling Johnsongrass [22]): 65%; inhibition at 280.212 g/ha (Bedstraw Catchweed [23]): 50%; inhibition at 280.212 g/ha (Morning Glory [24]): 65%; inhibition at 280.212 g/ha (Corn [25]): 7%; inhibition at 280.212 g/ha (Wild Oats [26]): 20%; inhibition at 280.212 g/ha (Cocklebur [27]): 90%; inhibition at 280.212 g/ha (Velvetleaf [28]): 98%; inhibition at 280.212 g/ha (Birdseye Speedwell [29]): 75%; inhibition at 280.212 g/ha (Common Chickweed [30]): 75%; inhibition at 280.212 g/ha (Soybean [31]): 30%; inhibition at 280.212 g/ha (Green Foxtail [32]): 15%; inhibition at 280.212 g/ha (Downy Brome [33]): 25%; inhibition at 280.212 g/ha (Blackgrass [34]): 15%
